Data on two molecules can be found in US6964959B2, “Use of a methylol-containing compound to treat tumors” (Carter Wallace, Inc., priority 1999, dated 2005).

Series [1] deals with MDR-transfected glioblastoma cells. Nature of the series: Cytotoxicity in MDR-transfected glioblastoma cells. As to conditions: transfected vs untransfected glioblastoma cells.
Source text: The neoplastic cell lines used in the survey were standard tumor cell lines, e.g., PA1 human ovarian cell line, SKOV3 human ovarian cell line, HT29 human colon tumor cell line, DU145 human prostate tumor cell line, U251 human glioblastoma cell line, U251-MDR human glioblastoma cell line transfected with DNA encoding MDR, T98G human glioblastoma cell line, SP-1 human leukemia cell line, and Daudi human leukemia cell line.
Glioblastoma cells were transfected with a gene encoding multiple drug resistance (MDR).
The test system of a further series is human cancer cell lines. Briefly: Cytotoxic activity of taurultam in human cancer cell lines. It is filed as cell-based. The method, then:
The cytotoxic activity of taurultam was evaluated in vitro using the same human cancer cell lines as described above. […] The data also indicate that the cytotoxic effect is directly proportionate to the number of methylol molecules liberated per molecule of methylol-containing compound

Consider `COc1cccc2c1C(=O)c1c(O)c3c(c(O)c1C2=O)C[C@@](O)(C(=O)CO)C[C@@H]3O[C@H]1C[C@H](N)[C@H](O)[C@H](C)O1` [adriamycin], for which the “resistance of MDR-transfected cells” value in series [1] is listed as 100-1000 times.
With `O=S1(=O)CCNCN1` [taurultam], the “induction of apoptotic death” value in the series on human cancer cell lines (cancer cells vs normal control cells) is reported as “induced apoptotic death of cancer cells but not normal control cells”. Moreover, the “cytotoxic activity relative to the activity observed with taurolidine” value with human cancer cell lines (same human cancer cell lines as for taurolidine) is on record as “approximately 75%”.
